Experimental findings from patent US10822348B2, “Inhibitors of Bruton's tyrosine kinase and methods of their use” (JANSSEN PHARMACEUTICA NV, priority 2015, dated 2020) are described below.

The target in this assay is unphosphorylated-BTK kinase domain (UP-BTK), GST-tagged human BTK (389-659aa) (Homo sapiens (Human), UniProt Q06187). Put plainly: BTK kinase Lanthascreen binding assay. As to the method:
BTK Kinase Lanthascreen Binding Assay:
A BTK kinase lanthascreen binding assay monitors compound binding to unphosphorylated-BTK kinase domain (UP-BTK), by competing with a fluorescent labeled tracer. […] Data were analyzed using Xlfit™ version 5.3 from ID Business Solutions (Guildford), Microsoft Excel add-in. pIC50 refers to the negative log of the IC50 in molar.
(TR-FRET usually uses a lanthanide donor and a delayed reading to cut background.)

The mark [1] stands for this setting: unphosphorylated-BTK kinase domain, 60 minutes incubation, pIC50 = negative log of the IC50 in molar.
Where [2] appears, read: negative log of the IC50 in molar, 60 minutes incubation with 50 nM Tracer 236.
[3] abbreviates: negative log of the IC50 in molar, 60 minutes incubation, 50 nM Tracer 236.

Sequence of unphosphorylated-BTK kinase domain (UP-BTK), GST-tagged human BTK (389-659aa) (Q06187 389-659): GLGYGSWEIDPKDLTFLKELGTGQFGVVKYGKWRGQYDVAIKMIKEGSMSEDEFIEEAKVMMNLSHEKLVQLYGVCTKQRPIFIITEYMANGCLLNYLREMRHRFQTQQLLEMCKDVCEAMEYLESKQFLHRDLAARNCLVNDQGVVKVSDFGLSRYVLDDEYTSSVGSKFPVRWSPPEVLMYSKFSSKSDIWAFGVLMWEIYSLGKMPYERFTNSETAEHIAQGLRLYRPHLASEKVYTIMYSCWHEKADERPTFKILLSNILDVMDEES

As for `C=CC(=O)N1C[C@H](NC(=O)c2sc3nccc4c3c2NC(=O)N4c2ccc(Oc3ccccc3)cc2C)[C@@H](F)C1` (relative stereo) [Example 486, N-((3S,4S)-1-Acryloyl-4-fluoropyrrolidin-3-yl)-5-(*S)-(2-methyl-4-phenoxyphenyl)-4-oxo-4,5-dihydro-3H-1-thia-3,5,8-triazaacenaphthylene-2-carboxamide], the “BTK_I_binding pIC50” value under setting [1] is listed as 7.8.
As to `C=CC(=O)N1CCC[C@@H](NC(=O)c2sc3nccc4c3c2NC(=O)N4c2cnc(CC(C)C)cc2C)C1` (single isomer, unassigned) [Example 669, (R)—N-(1-Acryloylpiperidin-3-yl)-5-(*S)-(6-isobutyl-4-methylpyridin-3-yl)-4-oxo-4,5-dihydro-3H-1-thia-3,5,8-triazaacenaphthylene-2-carboxamide], the “BTK_I_binding pIC50” value under setting [2] is listed as 8.1.
With `C=CC(=O)N1CCC[C@@H](NC(=O)c2sc3nccc4c3c2NC(=O)N4c2ccc(Oc3ccccc3)cc2C)C1` (single isomer, unassigned) [Example 87, (R)—N-(1-Acryloylpiperidin-3-yl)-5-(*R)-(2-methyl-4-phenoxyphenyl)-4-oxo-4,5-dihydro-3H-1-thia-3,5,8-triazaacenaphthylene-2-carboxamide], the “BTK_I_binding pIC50” value under setting [3] stood at 6.9.
For the compound `C=CC(=O)N1CCC[C@@H](NC(=O)c2sc3nccc4c3c2NC(=O)N4c2ccc(OC(F)(F)F)cc2C)C1` (single isomer, unassigned) [Example 624, (R)—N-(1-Acryloylpiperidin-3-yl)-5-(*R)-(2-methyl-4-(trifluoromethoxy)phenyl)-4-oxo-4,5-dihydro-3H-1-thia-3,5,8-triazaacenaphthylene-2-carboxamide], under setting [2], the “BTK_I_binding pIC50” value amounted to 5.9.
As for `C=CC(=O)N1CCC[C@@H](NC(=O)c2sc3nccc4c3c2NC(=O)N4c2cnc(OCC(C)C)cc2C)C1` (single isomer, unassigned) [Example 767, (R)—N-(1-Acryloylpiperidin-3-yl)-5-(*R)-(6-isobutoxy-4-methylpyridin-3-yl)-4-oxo-4,5-dihydro-3H-1-thia-3,5,8-triazaacenaphthylene-2-carboxamide], the “BTK_I_binding pIC50” value under setting [2] is given as below 6.
With `Cc1cc(Oc2ccccc2)ccc1N1C(=O)Nc2c(C(=O)N[C@H]3CCCOC3)sc3nccc1c23` (single isomer, unassigned) [Example 88, (S)-5-(*S)-(2-Methyl-4-phenoxyphenyl)-4-oxo-N-(tetrahydro-2H-pyran-3-yl)-4,5-dihydro-3H-1-thia-3,5,8-triazaacenaphthylene-2-carboxamide], the “BTK_I_binding pIC50” value under setting [3] was determined as 7.6.
Take `C=CC(=O)N1C[C@H](NC(=O)c2sc3nccc4c3c2NC(=O)N4c2ccc(Oc3ccccc3)cc2C)[C@H](OC)C1` (relative stereo) [Example 508, N-((3S,4R)-1-Acryloyl-4-methoxypyrrolidin-3-yl)-5-(*S)-(2-methyl-4-phenoxyphenyl)-4-oxo-4,5-dihydro-3H-1-thia-3,5,8-triazaacenaphthylene-2-carboxamide]: the “BTK_I_binding pIC50” value under setting [1] is 7.7.
Still for that read-out and setting: next, `CN1CCC[C@@H](NC(=O)c2sc3nccc4c3c2NC(=O)N4c2c(Cl)ccc3c2OCO3)C1` (single isomer, unassigned) [Example 353, (R)-5-(*R)-(5-Chlorobenzo[d][1,3]dioxol-4-yl)-N-(1-methylpiperidin-3-yl)-4-oxo-4,5-dihydro-3H-1-thia-3,5,8-triazaacenaphthylene-2-carboxamide]: 5.8; `Cc1cc(Oc2ccccc2)ccc1N1C(=O)Nc2c(C(=O)N[C@H]3CCCN(C)C3)sc3nccc1c23` (single isomer, unassigned) [Example 339, (S)-5-(*R)-(2-Methyl-4-phenoxyphenyl)-N-(1-methylpiperidin-3-yl)-4-oxo-4,5-dihydro-3H-1-thia-3,5,8-triazaacenaphthylene-2-carboxamide]: 5.4; `Cc1cc(Oc2ccccc2)ccc1N1C(=O)Nc2c(C(=O)N[C@@H]3CCCN(C#N)C3)sc3nccc1c23` (single isomer, unassigned) [Example 329, (R)—N-(1-Cyanopiperidin-3-yl)-5-(*R)-(2-methyl-4-phenoxyphenyl)-4-oxo-4,5-dihydro-3H-1-thia-3,5,8-triazaacenaphthylene-2-carboxamide]: 5.7.
On the same count and under the same terms, next, `CCOC(C)(C)/C=C(\C#N)C(=O)N1CCC[C@@H](NC(=O)c2sc3nccc4c3c2NC(=O)N4c2ccc(Oc3ccccc3)cc2C)C1` (single isomer, unassigned) [Example 480, (R,*E)-N-(1-(2-Cyano-4-ethoxy-4-methylpent-2-enoyl)piperidin-3-yl)-5-(*R)-(2-methyl-4-phenoxyphenyl)-4-oxo-4,5-dihydro-3H-1-thia-3,5,8-triazaacenaphthylene-2-carboxamide]: 7.2; `C=CC(=O)N1C[C@H](NC(=O)c2sc3nccc4c3c2NC(=O)N4c2ccc(Oc3ccccc3)cc2C)C[C@H](OC)C1` (relative stereo) [Example 482, N-((3R,5S)-1-Acryloyl-5-methoxypiperidin-3-yl)-5-(*S)-(2-methyl-4-phenoxyphenyl)-4-oxo-4,5-dihydro-3H-1-thia-3,5,8-triazaacenaphthylene-2-carboxamide]: 8.0.
For the compound `C=CC(=O)N1C[C@@H](F)C[C@@H](NC(=O)c2sc3nccc4c3c2NC(=O)N4c2ccc(Oc3ccccc3)cc2C)C1` [Example 3, N-((3R,5S)-1-Acryloyl-5-fluoropiperidin-3-yl)-5-(2-methyl-4-phenoxyphenyl)-4-oxo-4,5-dihydro-3H-1-thia-3,5,8-triazaacenaphthylene-2-carboxamide], the IC50 (read-out: BTK_I_binding pIC50 (converted)) is 12.6 nM.
For `C=CC(=O)N1CCC[C@@H](NC(=O)c2sc3nccc4c3c2NC(=O)N4c2c(Cl)ccc3c2OCO3)C1` (single isomer, unassigned) [Example 321, (R)—N-(1-Acryloylpiperidin-3-yl)-5-(*R)-(5-chlorobenzo[d][1,3]dioxol-4-yl)-4-oxo-4,5-dihydro-3H-1-thia-3,5,8-triazaacenaphthylene-2-carboxamide], the “BTK_I_binding pIC50” value under setting [1] amounted to 7.1.
With `C=CC(=O)N1CCC[C@@H](NC(=O)c2sc3nccc4c3c2NC(=O)N4c2ccc(Oc3ccccc3)cc2C)C1` (single isomer, unassigned) [Example 9, (R)—N-(1-Acryloylpiperidin-3-yl)-5-(*S)-(2-methyl-4-phenoxyphenyl)-4-oxo-4,5-dihydro-3H-1-thia-3,5,8-triazaacenaphthylene-2-carboxamide], under setting [3], the “BTK_I_binding pIC50” value is given as 8.1.
In the case of `C=CC(=O)N1CC[C@@H](NC(=O)c2sc3nccc4c3c2NC(=O)N4c2ccc(Oc3ccccc3)nc2C)C1` (single isomer, unassigned) [Example 716, (R)—N-(1-Acryloylpyrrolidin-3-yl)-5-(*S)-(2-methyl-6-phenoxypyridin-3-yl)-4-oxo-4,5-dihydro-3H-1-thia-3,5,8-triazaacenaphthylene-2-carboxamide], the “BTK_I_binding pIC50” value under setting [2] was determined as 8.0.
Take `Cc1cc(Oc2ccccc2)ccc1N1C(=O)Nc2c(C(=O)N[C@@H]3CCCN(C)C3)sc3nccc1c23` (single isomer, unassigned) [Example 127, (R)-5-(*S)-(2-Methyl-4-phenoxyphenyl)-N-(1-methylpiperidin-3-yl)-4-oxo-4,5-dihydro-3H-1-thia-3,5,8-triazaacenaphthylene-2-carboxamide]: the “BTK_I_binding pIC50” value under setting [3] was 7.3.
In the case of `Cc1cc(Oc2ccccc2)ccc1N1C(=O)Nc2c(C(=O)N[C@@H]3CCCN(C(=O)/C(C#N)=C/C4CC4)C3)sc3nccc1c23` (single isomer, unassigned) [Example 514, (R,E)-N-(1-(2-Cyano-3-cyclopropylacryloyl)piperidin-3-yl)-5-(*S)-(2-methyl-4-phenoxyphenyl)-4-oxo-4,5-dihydro-3H-1-thia-3,5,8-triazaacenaphthylene-2-carboxamide], the “BTK_I_binding pIC50” value under setting [1] is listed as 7.7.
For the compound `Cc1cc(Oc2ccccc2)ccc1N1C(=O)Nc2c(C(=O)N[C@@H]3CCN(C)C3)sc3nccc1c23` (single isomer, unassigned) [Example 147, (R)-5-(*S)-(2-Methyl-4-phenoxyphenyl)-N-(1-methylpyrrolidin-3-yl)-4-oxo-4,5-dihydro-3H-1-thia-3,5,8-triazaacenaphthylene-2-carboxamide], the “BTK_I_binding pIC50” value under setting [3] came to 7.4.
Consider `C=CC(=O)N1CC[C@@H](NC(=O)c2sc3nccc4c3c2NC(=O)N4c2cnc(OC3CCCC3)cc2C)C1` (single isomer, unassigned) [Example 776, (R)—N-(1-Acryloylpyrrolidin-3-yl)-5-(*S)-(6-(cyclopentyloxy)-4-methylpyridin-3-yl)-4-oxo-4,5-dihydro-3H-1-thia-3,5,8-triazaacenaphthylene-2-carboxamide], for which the “BTK_I_binding pIC50” value under setting [2] is 8.1.
Turning to `CCOC(C)(C)/C=C(\C#N)C(=O)N1CCC[C@@H](NC(=O)c2sc3nccc4c3c2NC(=O)N4c2ccc(Oc3ccccc3)cc2C)C1` (single isomer, unassigned) [Example 487, (R,E)-N-(1-(2-Cyano-4-ethoxy-4-methylpent-2-enoyl)piperidin-3-yl)-5-(*S)-(2-methyl-4-phenoxyphenyl)-4-oxo-4,5-dihydro-3H-1-thia-3,5,8-triazaacenaphthylene-2-carboxamide], the “BTK_I_binding pIC50” value under setting [1] is 7.6.
Turning to `C=CC(=O)N1CCC[C@@H](NC(=O)c2sc3nccc4c3c2NC(=O)N4c2cnc(OCC(C)C)cc2C)C1` (single isomer, unassigned) [Example 766, (R)—N-(1-Acryloylpiperidin-3-yl)-5-(*S)-(6-isobutoxy-4-methylpyridin-3-yl)-4-oxo-4,5-dihydro-3H-1-thia-3,5,8-triazaacenaphthylene-2-carboxamide], the “BTK_I_binding pIC50” value under setting [2] is listed as 8.2.
